“And” between values parts separate entries of the source, which are not always exact repeats. Identical values can stand only once.
What was measured:
Assay type in all cases: cell-based
[1] = tested on: Chlorella minutissima; experiment: Algal growth with MSM by percent transmittance
Procedure: Two species of Chlorella were examined for growth—Chlorella sorokiniana a freshwater species and Chlorella minutissima a marine species. […] Growth was measured on day 0, 1, 2, 3, 4, 5, 6, 7, 8, 9 and 10. […] The following media were purchased from UTEX Culture Collection of Algae: Enriched Salt Water Medium and Volvox Dextrose Medium.
The algae were grown for 48 hours in the appropriate medium. The initial suspension was enumerated for each alga and is referred to as the starting inoculums. Chlorella sorokiniana was at 381 million cells per milliliter and Chlorella minutissima was at 19 million cells per milliliter. One milliliter of the algal solution was placed into 9 mLs of medium and mixed by vortexing. […] The tube of algae and MSM were incubated at room temperature with exposure to sunlight. […] Each dilution of MSM for each organism was set up in and analyzed in triplicate for each time interval measured. The samples were measured by percent transmittance on a UV/VIS spectrophotometer at wavelength 750 nm. The medium stock was tested for percent transmittance background levels at every time interval were measured. The lower percent transmittance indicated a higher growth factor.

[2] = tested on: Herpes Simplex Virus type 1 (ATCC #VR-260)
[3] = tested on: Lactobacillus acidophilus; experiment: Growth of Lactobacillus acidophilus in Acidophilus milk fortified with MSM; details: 0.5% MSM
Text: 31, 2013. […] The Acidophilus milk was low fat (Darigold).

**Q.** Which results are given for CS(C)(=O)=O [MSM, Methylsulfonylmethane]?
**A.** percent transmittance ([1]; MSM Percentage 0.5, day 0, 750 nm): 93.5%; percent transmittance ([1]; MSM Percentage 0.5, day 1, 750 nm): 70.1%; percent transmittance ([1]; MSM Percentage 0.5, day 2, 750 nm): 45.4%; percent transmittance ([1]; MSM Percentage 0.5, day 3, 750 nm): 32.1%; percent transmittance ([1]; MSM Percentage 0.5, day 4, 750 nm): 27.6%; percent transmittance ([1]; MSM Percentage 0.5, day 5, 750 nm): 26.6%; percent transmittance ([1]; MSM Percentage 0.5, day 6, 750 nm): 25.1%; percent transmittance ([1]; MSM Percentage 0.5, day 7, 750 nm): 23.6%; percent transmittance ([1]; MSM Percentage 0.5, day 8, 750 nm): 22.8%; percent transmittance ([1]; MSM Percentage 0.5, day 9, 750 nm): 20.4%; percent transmittance ([1]; MSM Percentage 0.5, day 10, 750 nm): 18.9%; percent transmittance ([1]; MSM Percentage 1.0, day 0, 750 nm): 91.1%; percent transmittance ([1]; MSM Percentage 1.0, day 1, 750 nm): 80.5%; percent transmittance ([1]; MSM Percentage 1.0, day 2, 750 nm): 40.0%; percent transmittance ([1]; MSM Percentage 1.0, day 3, 750 nm): 31.0%; percent transmittance ([1]; MSM Percentage 1.0, day 4, 750 nm): 27.9%; percent transmittance ([1]; MSM Percentage 1.0, day 5, 750 nm): 26.5%; percent transmittance ([1]; MSM Percentage 1.0, day 6, 750 nm): 25.4%; percent transmittance ([1]; MSM Percentage 1.0, day 7, 750 nm): 24.4%; percent transmittance ([1]; MSM Percentage 1.0, day 8, 750 nm): 23.7%; percent transmittance ([1]; MSM Percentage 1.0, day 9, 750 nm): 21.0%; percent transmittance ([1]; MSM Percentage 1.0, day 10, 750 nm): 19.4%; percent transmittance ([1]; MSM Percentage 2.5, day 0, 750 nm): 82.8%; percent transmittance ([1]; MSM Percentage 2.5, day 1, 750 nm): 75.1%; percent transmittance ([1]; MSM Percentage 2.5, day 2, 750 nm): 59.5%; percent transmittance ([1]; MSM Percentage 2.5, day 3, 750 nm): 45.4%; percent transmittance ([1]; MSM Percentage 2.5, day 4, 750 nm): 33.6%; percent transmittance ([1]; MSM Percentage 2.5, day 5, 750 nm): 32.4%; percent transmittance ([1]; MSM Percentage 2.5, day 6, 750 nm): 30.0%; percent transmittance ([1]; MSM Percentage 2.5, day 7, 750 nm): 28.6%; percent transmittance ([1]; MSM Percentage 2.5, day 8, 750 nm): 27.7%; percent transmittance ([1]; MSM Percentage 2.5, day 9, 750 nm): 23.3%; percent transmittance ([1]; MSM Percentage 2.5, day 10, 750 nm): 21.1%; percent transmittance ([1]; MSM Percentage 5.0, day 0, 750 nm): 68.9%; percent transmittance ([1]; MSM Percentage 5.0, day 1, 750 nm): 87.4%; percent transmittance ([1]; MSM Percentage 5.0, day 2, 750 nm): 76.5%; percent transmittance ([1]; MSM Percentage 5.0, day 3, 750 nm): 62.0%; percent transmittance ([1]; MSM Percentage 5.0, day 4, 750 nm): 52.9%; percent transmittance ([1]; MSM Percentage 5.0, day 5, 750 nm): 52.2%; percent transmittance ([1]; MSM Percentage 5.0, day 6, 750 nm): 50.7%; percent transmittance ([1]; MSM Percentage 5.0, day 7, 750 nm): 51.0%; percent transmittance ([1]; MSM Percentage 5.0, day 8, 750 nm): 51.9%; percent transmittance ([1]; MSM Percentage 5.0, day 9, 750 nm): 47.1%; percent transmittance ([1]; MSM Percentage 5.0, day 10, 750 nm): 44.1%; percent transmittance ([1]; MSM Percentage 10.0, day 0, 750 nm): 49.6%; percent transmittance ([1]; MSM Percentage 10.0, day 1, 750 nm): 49.2%; percent transmittance ([1]; MSM Percentage 10.0, day 2, 750 nm): 50.8%; percent transmittance ([1]; MSM Percentage 10.0, day 3, 750 nm): 51.9%; percent transmittance ([1]; MSM Percentage 10.0, day 4, 750 nm): 52.0%; percent transmittance ([1]; MSM Percentage 10.0, day 5, 750 nm): 51.9%; percent transmittance ([1]; MSM Percentage 10.0, day 6, 750 nm): 54.9%; percent transmittance ([1]; MSM Percentage 10.0, day 7, 750 nm): 56.1%; percent transmittance ([1]; MSM Percentage 10.0, day 8, 750 nm): 58.6%; percent transmittance ([1]; MSM Percentage 10.0, day 9, 750 nm): 41.4%; percent transmittance ([1]; MSM Percentage 10.0, day 10, 750 nm): 36.7%; percent transmittance ([1]; MSM Percentage 20.0, day 0, 750 nm): 30.0%; percent transmittance ([1]; MSM Percentage 20.0, day 1, 750 nm): 33.8%; percent transmittance ([1]; MSM Percentage 20.0, day 2, 750 nm): 51.1%; percent transmittance ([1]; MSM Percentage 20.0, day 3, 750 nm): 54.8%; percent transmittance ([1]; MSM Percentage 20.0, day 4, 750 nm): 57.3%; percent transmittance ([1]; MSM Percentage 20.0, day 5, 750 nm): 57.5%; percent transmittance ([1]; MSM Percentage 20.0, day 6, 750 nm): 57.4%; percent transmittance ([1]; MSM Percentage 20.0, day 7, 750 nm): 57.1%; percent transmittance ([1]; MSM Percentage 20.0, day 8, 750 nm): 55.8%; percent transmittance ([1]; MSM Percentage 20.0, day 9, 750 nm): 45.1%; percent transmittance ([1]; MSM Percentage 20.0, day 10, 750 nm): 30.2%; Average TCID50 [2]: 3.17 log10 and 4.67 log10 and 4.33 log10 and 4.08 log10 and 4.83 log10 and 5.00 log10 and 5.42 log10; reduction of virus population [2]: more than 1.0 log10; peak growth [3]: 10.72 logs

Source: patent publication US9487749B2 (priority 2009, dated 2016)
